The source of these data is article PMC8426238, “Synthesis and preclinical evaluation of [^11C]MTP38 as a novel PET ligand for phosphodiesterase 7 in the brain” (European Journal of Nuclear Medicine and Molecular Imaging, 2021).

pIC50, pKi: −log10 of the molar value. Values joined by “and” are separate entries in the source; they are usually repeats but may differ in a detail not shown here. Equal entries are not always repeated. Bounds are passed on as bounds.

The target in one series is T1, Bradykinin B2 (Homo sapiens, UniProt P30411).
T1 construct: purchased Eurofins Panlabs Discovery Services (Taiwan)
T1 sequence (P30411 whole entry): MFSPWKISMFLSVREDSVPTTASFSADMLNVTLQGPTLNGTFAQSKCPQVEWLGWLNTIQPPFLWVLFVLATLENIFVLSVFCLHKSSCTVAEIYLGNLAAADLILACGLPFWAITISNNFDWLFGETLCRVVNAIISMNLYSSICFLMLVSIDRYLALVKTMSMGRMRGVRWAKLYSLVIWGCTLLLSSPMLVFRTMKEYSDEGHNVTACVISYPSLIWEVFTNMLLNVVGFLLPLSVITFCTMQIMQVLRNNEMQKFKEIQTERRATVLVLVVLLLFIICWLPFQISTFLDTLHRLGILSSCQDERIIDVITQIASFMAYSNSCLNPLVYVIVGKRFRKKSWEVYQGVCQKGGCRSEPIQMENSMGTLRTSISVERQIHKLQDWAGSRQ
Description: off-target screen panel. Format: binding. Conditions: Human recombinant, [^3H]Bradykinin.

The test system of the next series is Purinergic P2X. Description: off-target screen panel. In kind it is binding. Conditions: Rabbit urinary bladder, [^3H]α, β-Methylene-ATP.
The next series deals with T2, PDE6 (Bos taurus, UniProt P11541+P23439).
T2 construct: The enzyme source was bovine retinal rod outer segments for PDE6; tissue Eurofins Panlabs Discovery Services (Taiwan); host or cells: bovine retinal rod outer segments
In words: PDE isozyme inhibition screen panel (Eurofins Panlabs). In kind it is biochemical. Conditions: 1 μM of MTP38; bovine retinal rod outer segments; read-out: Percent inhibition. The method, then:
(§1) In vitro inhibitory effects of MTP38 on 12 PDE isozymes (PDE1A, 2A, 3A, 4B1, 5A, 6, 7A, 7B, 8A1, 9A2, 10A2, and 11A4) were determined using a commercial screen panel at Eurofins Panlabs Discovery Services (Taiwan). The enzyme source was bovine retinal rod outer segments for PDE6 or human recombinants for the others. The inhibition percentage at 1 μM or half-maximal inhibitory concentration (IC50) value was calculated. All assays were conducted in duplicate. For IC50 determination, three independent runs were performed.

Another series has as its target T3, PDE3A (Homo sapiens, UniProt Q14432).
T3 construct: purchased Eurofins Panlabs Discovery Services (Taiwan)
The description is as above. Conditions: 1 μM of MTP38; human recombinant; read-out: Percent inhibition. In kind it is biochemical. The method, then:
as §1

The next series addresses T4, PDE8A1 (Homo sapiens, UniProt O60658).
T4 construct: purchased Eurofins Panlabs Discovery Services (Taiwan)
The series is described as above. Conditions: 1 μM of MTP38; human recombinant; read-out: Percent inhibition. In kind it is biochemical. The method, then:
as §1

The next series addresses T5, PDE2A (Homo sapiens, UniProt O00408).
T5 construct: purchased Eurofins Panlabs Discovery Services (Taiwan)
The series is described as above. In kind it is biochemical. Conditions: human recombinant; geometric mean of three independent experiments. The method, then: as §1

The next series has as its target T6, PDE5A (Homo sapiens, UniProt O76074).
T6 construct: purchased Eurofins Panlabs Discovery Services (Taiwan)
The series is described as above. Format: biochemical. Conditions: 1 μM of MTP38; human recombinant; read-out: Percent inhibition. The method, then: as §1

A further series deals with T7, PDE7B (Homo sapiens, UniProt Q9NP56).
T7 construct: purchased Eurofins Panlabs Discovery Services (Taiwan)
T7 sequence (Q9NP56 whole entry): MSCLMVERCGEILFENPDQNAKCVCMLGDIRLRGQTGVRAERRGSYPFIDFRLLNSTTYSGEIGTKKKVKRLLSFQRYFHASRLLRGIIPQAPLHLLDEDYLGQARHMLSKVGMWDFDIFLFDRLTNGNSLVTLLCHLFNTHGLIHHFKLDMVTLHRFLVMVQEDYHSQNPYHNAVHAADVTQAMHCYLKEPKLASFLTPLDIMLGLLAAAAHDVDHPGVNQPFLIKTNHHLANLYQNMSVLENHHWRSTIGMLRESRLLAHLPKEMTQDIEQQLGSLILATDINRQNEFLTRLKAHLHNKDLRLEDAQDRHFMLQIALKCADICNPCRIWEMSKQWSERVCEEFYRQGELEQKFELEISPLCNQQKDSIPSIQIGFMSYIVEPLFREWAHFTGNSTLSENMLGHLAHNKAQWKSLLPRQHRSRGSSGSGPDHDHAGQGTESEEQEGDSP
The description is as above. Format: biochemical. The method, then: as §1

Another series deals with T8, PDE1A (Homo sapiens, UniProt P54750).
T8 construct: purchased Eurofins Panlabs Discovery Services (Taiwan)
The series is described as above. Format: biochemical. Conditions: 1 μM of MTP38; human recombinant; read-out: Percent inhibition. The method, then:
as §1

For another series, the target named is T9, PDE9A2 (Homo sapiens, UniProt O76083).
T9 construct: purchased Eurofins Panlabs Discovery Services (Taiwan)
T9 sequence (O76083 1-533 isoform O76083-2): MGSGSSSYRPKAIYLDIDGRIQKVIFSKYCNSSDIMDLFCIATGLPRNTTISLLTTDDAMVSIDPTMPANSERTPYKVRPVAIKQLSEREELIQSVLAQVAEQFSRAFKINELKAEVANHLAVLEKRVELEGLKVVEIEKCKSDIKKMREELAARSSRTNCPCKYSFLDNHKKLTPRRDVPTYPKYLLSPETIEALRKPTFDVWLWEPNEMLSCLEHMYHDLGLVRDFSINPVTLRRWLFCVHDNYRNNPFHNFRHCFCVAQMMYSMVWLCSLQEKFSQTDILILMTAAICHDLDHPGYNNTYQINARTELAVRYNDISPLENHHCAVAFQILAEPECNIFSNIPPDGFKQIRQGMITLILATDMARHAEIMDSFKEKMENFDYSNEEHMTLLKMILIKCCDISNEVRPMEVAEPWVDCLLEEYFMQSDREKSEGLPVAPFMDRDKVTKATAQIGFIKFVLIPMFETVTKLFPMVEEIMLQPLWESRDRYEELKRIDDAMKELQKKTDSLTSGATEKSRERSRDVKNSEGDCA
The description is as above. In kind it is biochemical. Conditions: 1 μM of MTP38; human recombinant; read-out: Percent inhibition. Here is the method: as §1

For a further series, the target named is T10, PDE11A4 (Homo sapiens, UniProt Q9HCR9).
T10 construct: purchased Eurofins Panlabs Discovery Services (Taiwan)
T10 sequence (Q9HCR9 whole entry): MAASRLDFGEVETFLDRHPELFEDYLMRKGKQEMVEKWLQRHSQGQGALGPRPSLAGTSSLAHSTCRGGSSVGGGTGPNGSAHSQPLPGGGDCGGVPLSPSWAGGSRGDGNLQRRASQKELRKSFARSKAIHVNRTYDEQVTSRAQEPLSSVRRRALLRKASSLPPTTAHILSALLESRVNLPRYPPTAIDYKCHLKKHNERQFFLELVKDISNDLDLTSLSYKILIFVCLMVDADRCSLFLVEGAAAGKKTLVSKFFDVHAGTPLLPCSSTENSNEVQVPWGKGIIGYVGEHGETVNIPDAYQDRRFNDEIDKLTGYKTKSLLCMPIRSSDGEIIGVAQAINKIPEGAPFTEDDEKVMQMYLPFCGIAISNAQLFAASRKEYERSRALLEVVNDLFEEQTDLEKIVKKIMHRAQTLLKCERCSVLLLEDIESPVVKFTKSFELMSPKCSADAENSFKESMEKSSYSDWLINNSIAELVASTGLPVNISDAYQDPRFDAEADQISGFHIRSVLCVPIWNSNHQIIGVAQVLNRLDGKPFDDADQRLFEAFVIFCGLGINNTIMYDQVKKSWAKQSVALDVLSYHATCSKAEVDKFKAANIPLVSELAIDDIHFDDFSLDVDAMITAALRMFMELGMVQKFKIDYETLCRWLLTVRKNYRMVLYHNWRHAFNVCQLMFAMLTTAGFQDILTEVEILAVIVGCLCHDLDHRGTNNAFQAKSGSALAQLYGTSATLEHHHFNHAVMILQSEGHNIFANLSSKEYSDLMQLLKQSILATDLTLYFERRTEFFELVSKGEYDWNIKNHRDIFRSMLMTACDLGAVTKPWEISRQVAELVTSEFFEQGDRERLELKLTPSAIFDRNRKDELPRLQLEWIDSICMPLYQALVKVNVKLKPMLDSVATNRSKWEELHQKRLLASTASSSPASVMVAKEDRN
Described as above. In kind it is biochemical. Conditions: 1 μM of MTP38; human recombinant; read-out: Percent inhibition. The method, then: as §1

The target in another series is T11, PDE7A (Homo sapiens, UniProt Q13946).
T11 construct: purchased Eurofins Panlabs Discovery Services (Taiwan)
T11 sequence (Q13946 whole entry): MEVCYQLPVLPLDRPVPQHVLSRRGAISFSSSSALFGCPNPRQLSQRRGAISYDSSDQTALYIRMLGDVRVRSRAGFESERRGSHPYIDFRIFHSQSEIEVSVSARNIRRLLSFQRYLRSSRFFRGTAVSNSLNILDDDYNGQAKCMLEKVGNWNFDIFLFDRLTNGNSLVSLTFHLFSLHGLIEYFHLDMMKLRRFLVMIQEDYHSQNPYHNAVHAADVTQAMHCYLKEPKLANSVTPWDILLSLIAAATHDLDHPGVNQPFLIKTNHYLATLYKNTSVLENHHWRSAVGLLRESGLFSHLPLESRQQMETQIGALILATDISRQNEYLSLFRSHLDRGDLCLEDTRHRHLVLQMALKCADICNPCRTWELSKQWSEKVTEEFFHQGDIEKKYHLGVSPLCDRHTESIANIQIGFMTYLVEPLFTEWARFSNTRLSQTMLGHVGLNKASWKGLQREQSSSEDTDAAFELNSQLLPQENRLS
The description is as above. In kind it is biochemical. Conditions: human recombinant; geometric mean of three independent experiments. Here is the method: as §1

In a further series the target is T12, hERG potassium channel (Homo sapiens, UniProt Q12809).
T12 construct: purchased Eurofins Panlabs Discovery Services (Taiwan)
Description: off-target screen panel. In kind it is binding. Conditions: human recombinant hERG potassium channel, probe [^3H]Astemizole. (Block of hERG is tested as a sign of cardiac risk.)

A further series deals with PDE4. In words: off-target screen panel. In kind it is binding. Conditions: Rat brain, [^3H]Rolipram.
The next series deals with PDE7. In words: PET imaging in monkeys with [^11C]MTP38. Format: in vivo, rhesus monkeys. Conditions: after unlabeled MTP38 iv bolus 0.075 mg/kg + infusion 0.3 mg/kg/h. The method, then: Each monkey underwent multiple PET scans with intervals longer than 2 weeks. The monkeys were given an intramuscular injection of 0.04 mg/kg of atropine sulfate at 1.5 h before radioligand injection. They were subsequently anesthetized with an intramuscular injection of ketamine (5 mg/kg) and xylazine (0.5 mg/kg), intubated, and kept anesthetized with 1–2% isoflurane. Heart rate, electrocardiogram, body temperature, blood oxygen saturation level, and end-tidal CO2 were monitored during the PET scan. The monkeys were placed on a bed in a supine position, and the head was fixed at the center of the field of view of a microPET scanner Focus220. A transmission scan was performed for about 20 min using a ^68Ge-^68Ga point source. A 90-min list-mode data acquisition was started simultaneously with intravenous administration of [^11C]MTP38 via a saphenous vein cannula. All list-mode data were sorted into 3D sinograms, which were then Fourier-rebinned into 2D sinograms (frames: 10 s × 6, 30 s × 8, 1 min × 5, 2 min × 10, and 5 min × 12). The images were corrected for attenuation and reconstructed with a filtered back-projection algorithm using a Hanning filter with a cut-off at the Nyquist frequency (0.5 mm^−1).
Along with baseline scans, we carried out blocking PET experiments according to the following pretreatment protocols: (1) unlabeled MTP38 was administered as an intravenous bolus (0.075 mg/kg) at 1 h before radioligand injection followed by continuous infusion at a rate of 0.3 mg/kg/h until the end of the PET scan, and (2) MTP-X (0.3–30 mg/kg) was administered orally at 2 or 6 h before radioligand injection.
PET scans for monkeys at baseline and following pretreatment with unlabeled MTP38, and 3, 10, 30 mg/kg of MTP-X were performed along with arterial blood sampling to obtain a metabolite-corrected input function. In total, 22 arterial blood samples were collected manually with heparinized syringes via a saphenous artery contralateral to the radioligand injection. Sampling was performed at 10, 20, 30, 40, 50, 60, 75, 90, 105, 120, 150, 180, and 210 s and at 4, 5, 10, 20, 30, 45, 60, 75, and 90 min after radioligand injection. Blood samples were then placed on ice and divided into two aliquots, one of which was centrifuged with a refrigerated centrifuge (15,000×g, 3 min, 4 °C) to obtain plasma.
PET images were co-registered onto the individual MR images. ROIs were placed on the prefrontal and medial frontal cortices, hippocampus, amygdala, striatum (caudate + putamen), nucleus accumbens, thalamus, cerebellum (gray matter), and brainstem. TACs in the baseline and blockade experiments were generated for each ROI.
Regional TACs were examined by several analytical methods to calculate the regional total distribution volume (VT), which represents the sum of non-specific and specific radioligand binding. Compartment model (1- or 2-tissue) and Logan’s graphical analyses were employed for describing the radioligand kinetics in the brain. The fractional blood volume was fixed at 0.05. For compartment model analyses, an optimal model was chosen on the basis of Akaike’s information criterion (AIC) and model selection criterion (MSC). For graphical analyses, an equilibration time t* was determined so that by the maximum error from the regression within the linear segment was considered to be 10% for each TAC. Time stability of VT was investigated by truncating the data duration stepwise from 90 min to 30 min. The VT values with or without pretreatment with a blocker were then compared. We also validated the use of the cerebellum as a reference tissue by this comparison, in addition to the autoradiographic findings, in monkey brain slices. The non-displaceable binding potential (BPND) was calculated by the original multilinear reference tissue model (MRTMO). t* was determined in the same manner as Logan’s graphical analysis. […]

For a further series, the target named is T13, Histamine H1 (Homo sapiens, UniProt P35367).
T13 construct: purchased Eurofins Panlabs Discovery Services (Taiwan)
Description: off-target screen panel. In kind it is binding. Conditions: Human recombinant, [^3H]Pyrilamine.

T5 sequence (O00408 whole entry): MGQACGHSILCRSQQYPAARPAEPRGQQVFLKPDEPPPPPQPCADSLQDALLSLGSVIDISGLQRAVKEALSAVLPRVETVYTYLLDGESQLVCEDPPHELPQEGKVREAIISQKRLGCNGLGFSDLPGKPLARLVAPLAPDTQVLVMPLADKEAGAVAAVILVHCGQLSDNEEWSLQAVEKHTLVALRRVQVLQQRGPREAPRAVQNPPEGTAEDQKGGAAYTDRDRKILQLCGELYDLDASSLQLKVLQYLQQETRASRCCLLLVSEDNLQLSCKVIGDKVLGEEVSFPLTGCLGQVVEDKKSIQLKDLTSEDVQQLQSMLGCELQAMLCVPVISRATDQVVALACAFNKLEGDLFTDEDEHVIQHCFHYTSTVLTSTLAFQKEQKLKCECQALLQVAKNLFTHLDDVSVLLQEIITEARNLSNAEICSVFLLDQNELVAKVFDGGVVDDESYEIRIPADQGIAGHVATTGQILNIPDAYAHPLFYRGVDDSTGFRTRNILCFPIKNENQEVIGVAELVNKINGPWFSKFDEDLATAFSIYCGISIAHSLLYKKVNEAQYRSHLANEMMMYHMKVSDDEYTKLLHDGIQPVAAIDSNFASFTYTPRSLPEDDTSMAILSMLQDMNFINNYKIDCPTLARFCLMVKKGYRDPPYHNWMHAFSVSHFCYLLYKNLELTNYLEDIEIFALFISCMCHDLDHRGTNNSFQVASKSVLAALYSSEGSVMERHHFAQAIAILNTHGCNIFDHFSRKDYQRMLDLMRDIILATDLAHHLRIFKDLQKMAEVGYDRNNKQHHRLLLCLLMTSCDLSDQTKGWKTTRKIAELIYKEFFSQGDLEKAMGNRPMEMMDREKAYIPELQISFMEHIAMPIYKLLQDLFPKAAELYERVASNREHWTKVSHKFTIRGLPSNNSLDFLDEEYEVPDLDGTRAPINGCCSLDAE
T3 sequence (Q14432 whole entry): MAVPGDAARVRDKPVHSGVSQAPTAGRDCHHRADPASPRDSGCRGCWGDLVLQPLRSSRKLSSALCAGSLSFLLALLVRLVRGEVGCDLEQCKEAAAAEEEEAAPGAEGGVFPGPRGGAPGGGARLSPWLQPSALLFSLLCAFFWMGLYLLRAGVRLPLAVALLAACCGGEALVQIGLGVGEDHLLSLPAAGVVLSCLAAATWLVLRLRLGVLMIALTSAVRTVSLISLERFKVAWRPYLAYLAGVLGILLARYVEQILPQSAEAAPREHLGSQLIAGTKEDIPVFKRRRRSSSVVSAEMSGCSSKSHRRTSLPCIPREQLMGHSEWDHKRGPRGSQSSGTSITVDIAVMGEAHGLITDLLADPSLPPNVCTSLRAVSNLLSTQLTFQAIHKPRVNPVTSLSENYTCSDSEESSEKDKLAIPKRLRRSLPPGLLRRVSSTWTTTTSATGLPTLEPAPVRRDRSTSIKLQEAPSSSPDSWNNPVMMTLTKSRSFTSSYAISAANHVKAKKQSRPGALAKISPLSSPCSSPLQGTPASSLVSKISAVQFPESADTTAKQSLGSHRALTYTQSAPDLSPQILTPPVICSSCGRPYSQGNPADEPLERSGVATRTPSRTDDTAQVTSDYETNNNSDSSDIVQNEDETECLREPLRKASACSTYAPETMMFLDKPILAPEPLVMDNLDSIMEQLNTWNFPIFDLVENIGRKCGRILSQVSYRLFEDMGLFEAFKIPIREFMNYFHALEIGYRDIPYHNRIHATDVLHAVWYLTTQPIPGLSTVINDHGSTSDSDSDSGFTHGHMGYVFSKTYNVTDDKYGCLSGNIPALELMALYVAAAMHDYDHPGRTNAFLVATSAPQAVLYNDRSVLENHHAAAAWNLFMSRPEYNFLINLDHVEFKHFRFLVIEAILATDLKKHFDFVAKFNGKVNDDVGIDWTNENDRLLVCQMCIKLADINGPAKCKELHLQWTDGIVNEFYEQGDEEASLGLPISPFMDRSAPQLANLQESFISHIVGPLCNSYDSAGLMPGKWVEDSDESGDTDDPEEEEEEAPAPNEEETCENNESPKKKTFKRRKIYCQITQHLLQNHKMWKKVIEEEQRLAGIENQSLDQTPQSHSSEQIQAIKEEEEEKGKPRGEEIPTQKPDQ

What is called inhibition is the change of the read-out against control, counted positive when it falls. Usually pIC50 stands for −log10 of the IC50, conventionally taken in molar units. Broadly, the pKi is the Ki on a negative log10 scale, so that one unit is a factor of ten. Take `C[C@@H]1CC[C@H](C)N(c2nnc3c(N)ncc(C#N)n23)C1` (relative stereo) [MTP38, 8-amino-3-(2S*,5R*-dimethyl-1-piperidyl)-[1,2,4]triazolo[4,3-a]pyrazine-5-carbonitrile]: the inhibition at 1 µM was 2% on Bradykinin B2; under 50% at PDE6; under 50% on PDE3A; under 50% on PDE8A1; under 50% on PDE5A; under 50% on PDE1A. The inhibition at 1 µM is under 50% on PDE9A2, under 50% at PDE11A4, 17% at hERG potassium channel and -20% on Histamine H1. For the same molecule, the “Inhibition (%) at 1 μM” value in the series on Purinergic P2X is reported as -3%; with PDE4 it was 74%. In addition, the pIC50 was < 7.00 and 6.94 on PDE2A; 8.92 at PDE7B (human recombinant, geometric mean of three independent experiments); 8.01 on PDE7A. In addition, at PDE7B (from IC50 1.21 nM, [S] 100 nM, Km 30–70 nM, read-out: Ki estimated by Cheng-Prusoff equation), the pKi was 9.30 to 9.55. Also, the “Striatal BPND of [^11C]MTP38” value in the series on PDE7 (monkey #1) was determined as 0.157; in the series with PDE7 (monkey #2), 0.017.
